Data: publication PMC3968691 (The FEBS journal, 2013)

Target: Sts-1PGM (suppressor of T-cell receptor signaling-1 PGM domain) (Mus musculus, UniProt Q8BGG7, E490Q/H380C)
Experiment: biochemical

Sequence of Sts-1PGM (suppressor of T-cell receptor signaling-1 PGM domain) (Q8BGG7 369-638 H380C/E490Q): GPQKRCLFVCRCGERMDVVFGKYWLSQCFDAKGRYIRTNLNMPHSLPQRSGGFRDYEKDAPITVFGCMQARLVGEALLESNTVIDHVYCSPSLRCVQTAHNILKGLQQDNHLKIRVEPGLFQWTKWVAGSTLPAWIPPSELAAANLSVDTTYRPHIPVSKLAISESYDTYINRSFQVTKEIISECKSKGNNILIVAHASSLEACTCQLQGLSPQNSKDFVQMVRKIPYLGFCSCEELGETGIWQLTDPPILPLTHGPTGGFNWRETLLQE

COc1ccc2c(c1)Oc1cc(OP(=O)(O)O)ccc1C21OC(=O)c2ccccc21 (stereo not shown) [OMFP]
Kd: 5.71 µM
